According to ChEMBL document CHEMBL4613264, “Design, Synthesis, and Biological Evaluation of New Peripheral 5HT2A Antagonists for Nonalcoholic Fatty Liver Disease” (J Med Chem, 2020):
Active and inactive are the calls of the source. No cut-off for these calls is given here.

Key:
[1] = molecular target: T1, 5-hydroxytryptamine receptor 2A (Homo sapiens, UniProt P28223); experiment: Antagonist activity at 5HT2A receptor (unknown origin) expressed in HEK293 cells assessed as inhibition of serotonin hydrochloride-induced calcium flux preincubated for 1 hr followed by serotonin hydrochloride addition by calcium 6 dye based FLIPR assay; type: functional, cell-based
T1 sequence (P28223 whole entry): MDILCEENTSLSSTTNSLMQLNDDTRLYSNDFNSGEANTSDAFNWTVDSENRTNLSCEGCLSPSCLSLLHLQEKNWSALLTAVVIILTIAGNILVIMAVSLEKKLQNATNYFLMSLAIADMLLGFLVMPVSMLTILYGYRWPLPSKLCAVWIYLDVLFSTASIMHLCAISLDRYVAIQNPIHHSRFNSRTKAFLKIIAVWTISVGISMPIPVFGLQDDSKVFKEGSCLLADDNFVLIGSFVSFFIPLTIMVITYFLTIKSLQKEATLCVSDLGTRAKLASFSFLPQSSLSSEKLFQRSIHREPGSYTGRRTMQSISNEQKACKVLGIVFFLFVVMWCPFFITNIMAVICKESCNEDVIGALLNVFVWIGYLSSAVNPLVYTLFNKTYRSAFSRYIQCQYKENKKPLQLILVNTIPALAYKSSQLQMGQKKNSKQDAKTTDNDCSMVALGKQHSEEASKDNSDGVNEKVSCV

[2] = test system: Mus musculus; experiment: Protection against 10 week HFD-induced liver disease in C57BL/6J mouse assessed as reduction in hepatic triglyceride accumulation at 50 to 100 mg/kg, ip administered daily for 10 weeks and measured post last dose by H and E staining based histological analysis; type: functional, organism-based
[3] = AUC (infinity) in Sprague-Dawley rat at 5 mg/kg, iv by LC-MS/MS analysis; type: ADME, organism-based; parameters: dose 5 mg/kg, time infinity, route intravenous; details: in vivo
[4] = test system: Mus musculus; experiment: Protection against 10 week HFD-induced liver disease in C57BL/6J mouse assessed as reduction in body weight gain at 100 mg/kg, ip administered daily for 10 weeks and measured post HFD stimulation; type: functional, organism-based
[5] = test system: Mus musculus; experiment: Protection against 10 week HFD-induced liver disease in C57BL/6J mouse assessed as reduction in brown adipose tissue fat mass at 50 to 100 mg/kg, ip administered daily for 10 weeks and measured post last dose by H and E staining based histological analysis; type: functional, organism-based
[6] = Stability in human liver microsomes assessed as parent compound remaining measured after 30 mins; type: ADME, Microsome; details: read-out: Stability
[7] = Clearance in Sprague-Dawley rat at 5 mg/kg, iv by LC-MS/MS analysis; type: ADME, organism-based; details: in vivo
[8] = test system: L929; experiment: Cytotoxicity against mouse L929 cells; type: cell-based
[9] = molecular target: T2, 5-hydroxytryptamine receptor 1A (Homo sapiens) (UniProt P08908); experiment: Antagonist activity at human 5HT1A expressed in mouse BA/F3 cells assessed as inhibition of serotonin-induced cAMP accumulation at 1 uM by fluorescence assay relative to control; type: functional, cell-based; details: BaF3
T2 sequence (whole entry): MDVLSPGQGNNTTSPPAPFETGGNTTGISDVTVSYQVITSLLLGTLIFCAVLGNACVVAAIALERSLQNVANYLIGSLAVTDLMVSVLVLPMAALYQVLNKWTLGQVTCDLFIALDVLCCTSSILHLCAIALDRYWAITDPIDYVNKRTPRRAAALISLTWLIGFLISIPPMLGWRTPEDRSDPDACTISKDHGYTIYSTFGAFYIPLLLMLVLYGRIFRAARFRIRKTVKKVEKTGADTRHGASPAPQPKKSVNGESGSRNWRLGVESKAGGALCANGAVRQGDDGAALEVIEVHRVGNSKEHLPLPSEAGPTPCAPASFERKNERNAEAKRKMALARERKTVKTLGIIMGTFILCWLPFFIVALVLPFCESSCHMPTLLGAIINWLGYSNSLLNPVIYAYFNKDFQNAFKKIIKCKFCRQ

[10] = molecular target: T3, 5-hydroxytryptamine receptor 3A (Homo sapiens) (UniProt P46098); experiment: Antagonist activity at 5HT3 (unknown origin) at 1 uM relative to control
T3 sequence (whole entry): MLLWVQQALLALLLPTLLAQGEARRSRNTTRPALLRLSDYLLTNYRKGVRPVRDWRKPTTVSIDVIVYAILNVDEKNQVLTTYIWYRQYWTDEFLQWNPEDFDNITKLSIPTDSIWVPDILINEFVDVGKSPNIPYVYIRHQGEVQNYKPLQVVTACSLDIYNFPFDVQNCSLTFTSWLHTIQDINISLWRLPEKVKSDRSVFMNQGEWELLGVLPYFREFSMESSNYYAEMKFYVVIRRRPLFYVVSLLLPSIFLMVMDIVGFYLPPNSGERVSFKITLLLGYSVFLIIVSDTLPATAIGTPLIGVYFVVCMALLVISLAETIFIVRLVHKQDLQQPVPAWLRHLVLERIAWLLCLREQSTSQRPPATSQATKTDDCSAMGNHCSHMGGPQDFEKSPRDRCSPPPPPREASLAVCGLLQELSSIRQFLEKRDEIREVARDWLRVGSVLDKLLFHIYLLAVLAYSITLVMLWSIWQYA

[11] = test system: NIH3T3; experiment: Cytotoxicity against mouse NIH/3T3 cells; type: cell-based
[12] = in vitro; details: rat, liver microsomes
Description: Stability in rat liver microsomes assessed as parent compound remaining measured after 30 mins

[13] = molecular target: 5-hydroxytryptamine receptor 1B (Homo sapiens) (UniProt P28222); experiment: Antagonist activity at recombinant human 5HT1B expressed in human HeLa cells assessed as inhibition of serotonin-induced cAMP accumulation at 1 uM measured after 5 mins by TR-FRET assay relative to control; type: functional, cell-based
Chain of 5-hydroxytryptamine receptor 1B (Homo sapiens) (P28222 whole entry): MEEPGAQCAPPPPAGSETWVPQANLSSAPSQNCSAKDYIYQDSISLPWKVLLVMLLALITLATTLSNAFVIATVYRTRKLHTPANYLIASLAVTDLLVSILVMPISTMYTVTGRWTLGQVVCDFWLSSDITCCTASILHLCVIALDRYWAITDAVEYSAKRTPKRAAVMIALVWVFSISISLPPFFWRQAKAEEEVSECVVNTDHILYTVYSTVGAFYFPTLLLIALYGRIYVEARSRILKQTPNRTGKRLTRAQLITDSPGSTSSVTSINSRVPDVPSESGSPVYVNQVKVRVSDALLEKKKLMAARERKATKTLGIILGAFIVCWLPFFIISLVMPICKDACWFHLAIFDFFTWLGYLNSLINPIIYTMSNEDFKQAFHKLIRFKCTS

[14] = Plasma concentration in ICR mouse at 5 mg/kg, iv measured after 0.5 hrs by LC-MS/MS analysis; type: ADME, organism-based
[15] = Ratio of drug level in brain to plasma of ICR mouse at 5 mg/kg, iv measured after 0.5 hrs by LC-MS/MS analysis; type: ADME, organism-based; details: read-out: BPR
[16] = test system: Mus musculus; experiment: Protection against 10 week HFD-induced liver disease in C57BL/6J mouse assessed as reduction in adipocyte size of inguinal white adipose tissue at 50 to 100 mg/kg, ip administered daily for 10 weeks and measured post last dose by H and E staining based histological analysis; type: functional, organism-based
[17] = Half life in Sprague-Dawley rat at 5 mg/kg, iv by LC-MS/MS analysis; type: ADME, organism-based; details: in vivo
[18] = test system: Mus musculus; experiment: Protection against 10 week HFD-induced liver disease in C57BL/6J mouse assessed as reduction in body fat accumulation at 100 mg/kg, ip administered daily for 10 weeks and measured post last dose by NMR analysis; type: functional, organism-based
[19] = test system: Mus musculus; experiment: Protection against 10 week HFD-induced liver disease in C57BL/6J mouse assessed as reduction in blood glucose level at 100 mg/kg, ip administered daily for 10 weeks and measured 9 weeks post HFD stimulation by IPGTT; type: functional, organism-based
[20] = test system: CHO-K1; experiment: Cytotoxicity against CHOK1 cells; type: cell-based; details: Cricetulus griseus
[21] = test system: Mus musculus; experiment: Protection against 10 week HFD-induced liver disease in C57BL/6J mouse assessed as reduction in hepatic triglyceride accumulation at 50 to 100 mg/kg, ip administered daily for 10 weeks and measured post last dose by triglyceride reagent based colorimetric analysis; type: functional, organism-based
[22] = molecular target: 5-hydroxytryptamine receptor 7 (Homo sapiens) (UniProt P34969); experiment: Antagonist activity at recombinant human 5HT7 receptor expressed in CHOK1 cells assessed as inhibition of serotonin-induced cAMP accumulation at 1 uM measured after 30 mins by HTRF assay relative to control; type: functional, cell-based; details: CHO-K1
Chain of 5-hydroxytryptamine receptor 7 (Homo sapiens) (P34969 whole entry): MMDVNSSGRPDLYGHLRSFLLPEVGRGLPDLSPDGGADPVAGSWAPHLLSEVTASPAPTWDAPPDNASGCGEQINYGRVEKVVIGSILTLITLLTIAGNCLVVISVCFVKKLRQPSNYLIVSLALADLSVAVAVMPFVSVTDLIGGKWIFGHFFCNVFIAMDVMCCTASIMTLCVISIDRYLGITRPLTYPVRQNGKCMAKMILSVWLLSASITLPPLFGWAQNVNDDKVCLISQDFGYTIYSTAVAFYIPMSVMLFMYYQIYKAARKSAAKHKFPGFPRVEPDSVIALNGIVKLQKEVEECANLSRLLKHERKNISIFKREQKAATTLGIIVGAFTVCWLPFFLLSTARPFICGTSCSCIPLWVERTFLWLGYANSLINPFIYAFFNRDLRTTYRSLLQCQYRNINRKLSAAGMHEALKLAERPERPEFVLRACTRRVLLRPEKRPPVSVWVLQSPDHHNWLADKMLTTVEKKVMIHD

[23] = molecular target: T1, 5-hydroxytryptamine receptor 2A; experiment: Antagonist activity at recombinant human full-length 5HT2A receptor expressed in CHOK1 cells assessed as inhibition of serotonin-induced inositol phosphate accumulation at 1 uM measured after 30 mins by TR-FRET assay relative to control; type: functional, cell-based; details: CHO-K1
[24] = Volume of distribution at steady state in Sprague-Dawley rat at 5 mg/kg, iv by LC-MS/MS analysis; type: ADME, organism-based; details: in vivo, read-out: Vdss
[25] = molecular target: T4, 5-hydroxytryptamine receptor 2C (Homo sapiens) (UniProt P28335); experiment: Antagonist activity at recombinant human 5HT2C receptor expressed in HEK293 cells assessed as inhibition of serotonin-induced inositol phosphate accumulation at 1 uM measured after 30 mins by HTRF assay relative to control; type: functional, cell-based
T4 sequence (whole entry): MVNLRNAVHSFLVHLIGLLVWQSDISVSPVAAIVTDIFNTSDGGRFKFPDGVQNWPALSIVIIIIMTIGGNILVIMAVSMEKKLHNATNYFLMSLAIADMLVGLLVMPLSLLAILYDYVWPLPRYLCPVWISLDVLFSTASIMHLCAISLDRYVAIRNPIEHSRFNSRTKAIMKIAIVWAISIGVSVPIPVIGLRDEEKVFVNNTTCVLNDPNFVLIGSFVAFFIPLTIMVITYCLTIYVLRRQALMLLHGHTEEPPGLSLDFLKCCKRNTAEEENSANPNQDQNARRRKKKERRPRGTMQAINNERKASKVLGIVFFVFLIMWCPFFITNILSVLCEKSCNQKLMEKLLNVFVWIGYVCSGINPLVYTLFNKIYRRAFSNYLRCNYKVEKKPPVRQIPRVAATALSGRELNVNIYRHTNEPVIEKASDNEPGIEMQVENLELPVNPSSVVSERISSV

[26] = Drug level in ICR mouse brain at 5 mg/kg, iv measured after 0.5 hrs by LC-MS/MS analysis; type: ADME, organism-based; details: read-out: Drug uptake
[27] = test system: Vero; experiment: Cytotoxicity against African green monkey Vero cells; type: cell-based; details: Chlorocebus sabaeus
[28] = AUCt in Sprague-Dawley rat at 5 mg/kg, iv by LC-MS/MS analysis; type: ADME, organism-based; details: in vivo
[29] = test system: Mus musculus; experiment: Protection against 10 week HFD-induced liver disease in C57BL/6J mouse assessed as reduction in liver weight at 50 to 100 mg/kg, ip administered daily for 10 weeks and measured post last dose; type: functional, organism-based
[30] = test system: Mus musculus; experiment: Protection against 10 week HFD-induced liver disease in C57BL/6J mouse assessed as reduction in epididymal white adipose tissue fat mass at 50 to 100 mg/kg, ip administered daily for 10 weeks and measured post last dose by H and E staining based histological analysis; type: functional, organism-based
[31] = molecular target: 5-hydroxytryptamine receptor 2B (Homo sapiens) (UniProt P41595); experiment: Antagonist activity at recombinant human full-length 5HT2B receptor expressed in CHOK1 cells assessed as inhibition of serotonin-induced inositol phosphate accumulation at 1 uM measured after 30 mins by TR-FRET assay relative to control; type: functional, cell-based; details: CHO-K1
Chain of 5-hydroxytryptamine receptor 2B (Homo sapiens) (P41595 whole entry): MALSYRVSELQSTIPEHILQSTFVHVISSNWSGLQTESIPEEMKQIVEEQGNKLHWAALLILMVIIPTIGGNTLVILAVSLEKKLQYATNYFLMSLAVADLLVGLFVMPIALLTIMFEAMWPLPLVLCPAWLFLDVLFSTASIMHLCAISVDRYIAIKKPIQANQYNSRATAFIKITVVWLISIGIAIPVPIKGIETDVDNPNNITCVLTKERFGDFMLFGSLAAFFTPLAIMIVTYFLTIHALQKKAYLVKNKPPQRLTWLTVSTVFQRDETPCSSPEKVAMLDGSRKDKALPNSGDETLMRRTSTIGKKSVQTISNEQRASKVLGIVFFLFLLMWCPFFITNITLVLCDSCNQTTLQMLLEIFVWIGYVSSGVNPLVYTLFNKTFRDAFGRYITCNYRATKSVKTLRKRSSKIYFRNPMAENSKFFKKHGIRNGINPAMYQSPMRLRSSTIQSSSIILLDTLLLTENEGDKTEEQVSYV

[32] = test system: Mus musculus; experiment: Protection against 10 week HFD-induced liver disease in C57BL/6J mouse assessed as increase in lead body mass at 100 mg/kg, ip administered daily for 10 weeks and measured post last dose by NMR analysis; type: functional, organism-based
[33] = test system: HFL1; experiment: Cytotoxicity against human HFL1 cells; type: cell-based
[34] = test system: Mus musculus; experiment: Protection against 10 week HFD-induced liver disease in C57BL/6J mouse assessed as reduction in inguinal white adipose tissue fat mass at 50 to 100 mg/kg, ip administered daily for 10 weeks and measured post last dose by H and E staining based histological analysis; type: functional, organism-based
[35] = molecular target: hERG (KCNH2) (Homo sapiens, UniProt Q12809); experiment: Inhibition of human ERG at 10 uM relative to control
Chain of hERG (KCNH2) (Q12809 whole entry): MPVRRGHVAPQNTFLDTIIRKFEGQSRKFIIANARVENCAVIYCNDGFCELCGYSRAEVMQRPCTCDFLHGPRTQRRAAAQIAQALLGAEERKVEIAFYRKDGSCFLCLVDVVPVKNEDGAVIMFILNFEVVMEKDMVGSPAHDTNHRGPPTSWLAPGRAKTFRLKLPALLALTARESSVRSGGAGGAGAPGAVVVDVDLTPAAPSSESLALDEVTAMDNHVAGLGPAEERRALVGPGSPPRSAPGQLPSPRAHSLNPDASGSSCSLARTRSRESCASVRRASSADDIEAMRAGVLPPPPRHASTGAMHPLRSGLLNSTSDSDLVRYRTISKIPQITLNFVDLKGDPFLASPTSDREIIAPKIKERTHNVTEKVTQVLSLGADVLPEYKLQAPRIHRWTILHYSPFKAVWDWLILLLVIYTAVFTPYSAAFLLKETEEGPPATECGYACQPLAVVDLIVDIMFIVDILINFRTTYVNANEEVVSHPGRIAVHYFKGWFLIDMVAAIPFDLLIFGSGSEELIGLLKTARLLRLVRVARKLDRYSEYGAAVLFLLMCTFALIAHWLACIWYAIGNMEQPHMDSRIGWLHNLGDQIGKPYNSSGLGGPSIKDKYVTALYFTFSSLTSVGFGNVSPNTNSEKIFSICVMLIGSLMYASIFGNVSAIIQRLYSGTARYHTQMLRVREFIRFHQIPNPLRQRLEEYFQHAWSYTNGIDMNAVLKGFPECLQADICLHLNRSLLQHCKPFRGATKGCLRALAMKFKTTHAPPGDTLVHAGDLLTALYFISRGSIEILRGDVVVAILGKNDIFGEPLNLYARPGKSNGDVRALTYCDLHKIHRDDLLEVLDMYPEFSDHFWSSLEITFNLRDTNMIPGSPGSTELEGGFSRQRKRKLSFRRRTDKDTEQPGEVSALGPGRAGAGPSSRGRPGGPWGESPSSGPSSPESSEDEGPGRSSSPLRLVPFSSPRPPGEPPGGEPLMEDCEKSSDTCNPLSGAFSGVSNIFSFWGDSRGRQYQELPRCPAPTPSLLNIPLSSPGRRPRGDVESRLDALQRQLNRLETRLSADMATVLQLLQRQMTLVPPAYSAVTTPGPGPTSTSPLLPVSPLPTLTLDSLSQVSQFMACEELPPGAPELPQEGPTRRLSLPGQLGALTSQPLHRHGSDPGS

[36] = test system: Mus musculus; experiment: Protection against 10 week HFD-induced liver disease in C57BL/6J mouse assessed as reduction in crownlike structure appearance in epididymal white adipose tissue at 50 to 100 mg/kg, ip administered daily for 10 weeks and measured post last dose by H and E staining based histological analysis; type: functional, organism-based
[37] = Drug level in ICR mouse brain at 10 mg/kg, ip measured after 0.5 hrs by LC-MS/MS analysis; details: read-out: Drug uptake
[38] = Plasma concentration in ICR mouse at 10 mg/kg, ip measured after 0.5 hrs by LC-MS/MS analysis
[39] = Ratio of drug level in brain to plasma of ICR mouse at 10 mg/kg, ip measured after 0.5 hrs by LC-MS/MS analysis; details: read-out: BPR

## CC(C)COc1ccc(CNC(=O)N(Cc2ccc(F)cc2)C2CCN(C(=O)C[C@H](N)C(=O)O)CC2)cc1
[1]
  IC50: 0.0347 µM

## CN1CCC(N(Cc2ccc(F)cc2)C(=O)NCc2ccc(OCC(O)CN3CCN(C(=O)OC(C)(C)C)CC3)cc2)CC1 (stereo not drawn)
[1]
  IC50: 0.00194 µM

## CC(C)COc1ccc(CNC(=O)N(Cc2ccc(F)cc2)C2CCNCC2)cc1
[1]
  IC50: 0.0006 µM

## CC(C)COc1ccc(CNC(=O)N(Cc2ccc(F)cc2)C2CCN(C(=O)CC[C@H](N)C(=O)O)CC2)cc1
[2]
  Activity: Active
[1]
  IC50: 0.00835 µM
[3]
  AUC(0-inf): 2030 ng·h/mL
[4]
  Activity: Active
[5]
  Activity: Active
[6]
  remaining at 0.5 h: 89%
[7]
  clearance: 41 mL/min/kg
[8]
  IC50: 64 µM
[9]
  inhibition: -2.8%
[10]
  inhibition: -5%
[11]
  IC50: 18.2 µM
[12]
  remaining at 0.5 h: 84%
[13]
  inhibition: 6%
[14]
  concentration at 0.5 h: 416 ng/mL
[15]
  Kp at 0.5 h: 0.038
[16]
  Activity: Active
[17]
  half-life: 16.9 h
[18]
  Activity: Active
[19]
  Activity: Active
[20]
  IC50: 51 µM
[21]
  Activity: Active
[22]
  inhibition: 6.3%
[23]
  inhibition: 93%
[24]
  Vd: 11 L/kg
[25]
  inhibition: 63.8%
[26]
  concentration at 0.5 h: 15.1 ng/g
[27]
  IC50: 54.7 µM
[28]
  AUC(0-t): 1910 ng·h/mL
[29]
  Activity: Active
[30]
  Activity: Active
[31]
  inhibition: 7%
[32]
  Activity: Active
[33]
  IC50: 55.2 µM
[34]
  Activity: Active
[35]
  inhibition at 10 µM: 18.7%
[36]
  Activity: Active

## CC(C)COc1ccc(CNC(=O)N(Cc2ccc(F)cc2)C2CCN(C)CC2)cc1 [PIMAVANSERIN]
[37]
  concentration at 0.5 h: 3010 ng/g
[38]
  concentration at 0.5 h: 612 ng/mL
[39]
  Kp at 0.5 h: 4.98

## CC(C)COc1ccc(CNC(=O)N(Cc2ccc(F)cc2)C2CCN(C(=S)NC(C)C)CC2)cc1
[1]
  IC50: 1.13 µM
